Laboratory results from patent publication US20080193913A1, “Diluent, methods of manufacture and use” (Millipore Corporation, priority 2002, published 2008).

Assay: Non-specific drug binding (NSB) to 96-well plates, drug in phosphate buffer
Type: physicochemical
Details: time course study on PP and PTFE plates using LC-MS (data not shown)
Protocol: The drug NSB (10 nM drug in phosphate buffer) to other 96-well plates made from different plastics was also tested.

SMILES | drug NSB, dependence on plate material
CC(=O)O[C@H]1C(=O)[C@@]2(C)[C@H]([C@H](OC(=O)c3ccccc3)[C@]3(O)C[C@H](OC(=O)[C@H](O)[C@@H](NC(=O)c4ccccc4)c4ccccc4)C(C)=C1C3(C)C)[C@]1(OC(C)=O)CO[C@@H]1C[C@@H]2O [taxol] | independent of plate material
C[C@]12CC[C@H]3[C@@H](CCC4=CC(=O)CC[C@@]43C)[C@@H]1CC[C@@H]2O [testosterone] | independent of plate material
